In publication PMC2763079 (Molecular Imaging and Biology, 2009):

Key:
TSPO [1] = biological target: T1, TSPO (Rattus norvegicus, UniProt P16257); assay: ex vivo biodistribution after PET scan; format: in vivo; conditions: 60 min after tracer injection
TSPO [2] = biological target: T1, TSPO; assay: correlation of specific binding in control rats with [^3H]-PK11195 binding; format: in vivo

T1 sequence (P16257 whole entry): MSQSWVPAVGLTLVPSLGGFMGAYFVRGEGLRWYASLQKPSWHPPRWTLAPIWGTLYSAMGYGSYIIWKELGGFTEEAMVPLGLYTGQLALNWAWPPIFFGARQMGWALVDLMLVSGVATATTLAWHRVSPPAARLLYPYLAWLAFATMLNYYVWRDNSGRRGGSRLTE

`CC[C@@H](C)N(C)C(=O)c1cc2ccccc2c(-c2ccccc2Cl)n1` [[^11C]-(R)-PK11195, (R)-N-methyl-N-(1-methylpropyl)-1-(2-chlorophenyl)isoquinoline-3-carboxamide] was tested, and the “Ex vivo biodistribution SUV, bulbus olfactorius” value (TSPO [1]; HSE rats) was 1.59 SUV, the “Ex vivo biodistribution SUV, cerebellum” value (TSPO [1]; HSE rats) was 0.88 SUV and the “Ex vivo biodistribution SUV, medulla” value (TSPO [1]; HSE rats) was 1.29 SUV. The “Ex vivo biodistribution SUV, pons” value (TSPO [1]; HSE rats) was 1.54 SUV, the “Ex vivo biodistribution SUV, bulbus olfactorius” value (TSPO [1]; control rats) was 1.20 SUV and the “Ex vivo biodistribution SUV, cerebellum” value (TSPO [1]; control rats) was 0.51 SUV. For the same molecule, the “Ex vivo biodistribution SUV, medulla” value (TSPO [1]; control rats) was 0.61 SUV, the “Ex vivo biodistribution SUV, pons” value (TSPO [1]; control rats) was 0.59 SUV and the “R, correlation of specific binding in control rats with [^3H]-PK11195 binding” value (TSPO [2]; Pearson correlation, [^3H]-PK11195 binding from Kurumaji et al. [25]) was 0.96. The “slope of the linear regression of specific binding vs [^3H]-PK11195 binding” value (TSPO [2]; control rats) was 0.010.
